Usually GI50 stands for the concentration giving 50% growth inhibition. For orientation: AC50 means the concentration giving half of the maximal activity seen. For orientation: IC50 means the concentration that gives 50% inhibition. As a reminder, the EC50 is the concentration giving half of the maximal effect.

The subject of one assay is P388/ADR. As to the kind of experiment: cells. It is filed as functional. Particulars: Mus musculus.
In another assay the test system is SN12K1. As to the kind of experiment: cells. Type of assay: functional. Particulars: Homo sapiens.
The test system of a further assay is P388. As to the kind of experiment: cells. It is filed as functional. The settings on record: Mus musculus.
The target in the next assay is Cytochrome P450 2C19 (Homo sapiens, UniProt P33261). The experiment in a line: Cytochrome panel assay with activity outcomes. Panel member name: p450-cyp2c19 Compounds with AC50 equal or less than 10 uM are considered active. Particulars: read-out: AC50. Type of assay: functional.
Chain of Cytochrome P450 2C19 (P33261 whole entry): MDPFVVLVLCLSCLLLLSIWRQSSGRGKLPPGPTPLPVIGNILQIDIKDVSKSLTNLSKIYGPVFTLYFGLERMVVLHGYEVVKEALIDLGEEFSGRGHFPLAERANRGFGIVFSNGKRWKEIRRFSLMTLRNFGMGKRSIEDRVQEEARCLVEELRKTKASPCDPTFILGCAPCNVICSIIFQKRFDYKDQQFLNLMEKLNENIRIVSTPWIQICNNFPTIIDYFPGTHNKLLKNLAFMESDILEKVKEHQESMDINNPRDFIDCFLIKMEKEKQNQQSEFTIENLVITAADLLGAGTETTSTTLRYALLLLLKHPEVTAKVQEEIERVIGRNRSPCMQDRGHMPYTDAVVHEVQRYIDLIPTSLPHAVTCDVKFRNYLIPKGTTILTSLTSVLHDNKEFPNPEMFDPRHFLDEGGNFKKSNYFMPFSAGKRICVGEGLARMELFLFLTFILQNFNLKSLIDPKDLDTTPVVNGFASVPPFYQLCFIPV
The target of a further assay is T1, Cytochrome P450 1A2 (Homo sapiens, UniProt P05177).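 Also: PubChem cytochrome P450 panel assay, CYP1A2 panel member.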
T1 sequence (P05177 whole entry): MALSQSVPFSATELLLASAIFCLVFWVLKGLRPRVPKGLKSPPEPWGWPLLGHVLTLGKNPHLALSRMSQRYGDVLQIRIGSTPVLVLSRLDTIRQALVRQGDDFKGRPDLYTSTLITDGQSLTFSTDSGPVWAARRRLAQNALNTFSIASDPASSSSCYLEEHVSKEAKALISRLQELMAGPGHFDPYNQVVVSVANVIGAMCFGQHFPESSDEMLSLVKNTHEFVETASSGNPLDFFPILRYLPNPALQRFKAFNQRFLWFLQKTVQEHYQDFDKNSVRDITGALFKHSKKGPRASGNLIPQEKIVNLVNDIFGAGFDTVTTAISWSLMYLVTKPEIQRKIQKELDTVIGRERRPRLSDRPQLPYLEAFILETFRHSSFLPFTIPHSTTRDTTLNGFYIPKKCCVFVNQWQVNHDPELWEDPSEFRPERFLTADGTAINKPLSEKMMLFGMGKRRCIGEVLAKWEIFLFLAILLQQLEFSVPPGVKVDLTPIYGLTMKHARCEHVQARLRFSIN

Assay [1] has as its target T2, Carboxy-terminal domain RNA polymerase II polypeptide A small phosphatase 1 (Homo sapiens, UniProt Q9GZU7).
T2 sequence (Q9GZU7 whole entry): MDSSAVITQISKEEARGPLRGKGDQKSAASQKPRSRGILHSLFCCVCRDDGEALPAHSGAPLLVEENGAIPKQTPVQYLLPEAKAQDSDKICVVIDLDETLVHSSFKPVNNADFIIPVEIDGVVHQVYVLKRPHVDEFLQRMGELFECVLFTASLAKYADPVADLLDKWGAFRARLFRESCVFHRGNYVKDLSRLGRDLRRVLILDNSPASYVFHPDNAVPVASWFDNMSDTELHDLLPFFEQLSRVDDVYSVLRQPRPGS
The experiment in a line: CTDSP1 inhibitors, concentration-response, biochemical, absorbance readout, ultra-high-throughput screen actives (AID 540297). It is filed as functional.

The next assay deals with Phospholipase A2 (Homo sapiens, UniProt P04054). It is filed as functional.
Chain of Phospholipase A2 (P04054 whole entry): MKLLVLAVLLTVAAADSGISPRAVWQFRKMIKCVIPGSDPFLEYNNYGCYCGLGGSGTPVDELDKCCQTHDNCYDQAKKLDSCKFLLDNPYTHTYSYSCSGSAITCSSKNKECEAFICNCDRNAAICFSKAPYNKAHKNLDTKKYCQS
The target in a further assay is T3, Cysteine protease ATG4B (Homo sapiens, UniProt Q9Y4P1).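 Also: Fluorescence-based dose-response confirmation assay measuring inhibition of ATG4B activity.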
T3 sequence (Q9Y4P1 whole entry): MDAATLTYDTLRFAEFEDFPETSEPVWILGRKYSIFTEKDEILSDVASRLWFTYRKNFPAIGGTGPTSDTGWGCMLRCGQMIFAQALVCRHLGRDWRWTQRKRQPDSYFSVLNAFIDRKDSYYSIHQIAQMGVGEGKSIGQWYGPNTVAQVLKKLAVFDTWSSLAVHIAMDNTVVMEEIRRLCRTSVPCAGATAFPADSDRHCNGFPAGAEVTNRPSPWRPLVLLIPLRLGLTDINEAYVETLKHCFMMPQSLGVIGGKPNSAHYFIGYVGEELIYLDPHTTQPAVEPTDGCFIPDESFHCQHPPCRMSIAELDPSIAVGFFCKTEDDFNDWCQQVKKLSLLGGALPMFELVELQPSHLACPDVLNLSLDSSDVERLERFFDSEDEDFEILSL
Type of assay: functional.

The target in assay [2] is T4, Short transient receptor potential channel 4 (Mus musculus, UniProt Q9QUQ5).
T4 sequence (Q9QUQ5 whole entry): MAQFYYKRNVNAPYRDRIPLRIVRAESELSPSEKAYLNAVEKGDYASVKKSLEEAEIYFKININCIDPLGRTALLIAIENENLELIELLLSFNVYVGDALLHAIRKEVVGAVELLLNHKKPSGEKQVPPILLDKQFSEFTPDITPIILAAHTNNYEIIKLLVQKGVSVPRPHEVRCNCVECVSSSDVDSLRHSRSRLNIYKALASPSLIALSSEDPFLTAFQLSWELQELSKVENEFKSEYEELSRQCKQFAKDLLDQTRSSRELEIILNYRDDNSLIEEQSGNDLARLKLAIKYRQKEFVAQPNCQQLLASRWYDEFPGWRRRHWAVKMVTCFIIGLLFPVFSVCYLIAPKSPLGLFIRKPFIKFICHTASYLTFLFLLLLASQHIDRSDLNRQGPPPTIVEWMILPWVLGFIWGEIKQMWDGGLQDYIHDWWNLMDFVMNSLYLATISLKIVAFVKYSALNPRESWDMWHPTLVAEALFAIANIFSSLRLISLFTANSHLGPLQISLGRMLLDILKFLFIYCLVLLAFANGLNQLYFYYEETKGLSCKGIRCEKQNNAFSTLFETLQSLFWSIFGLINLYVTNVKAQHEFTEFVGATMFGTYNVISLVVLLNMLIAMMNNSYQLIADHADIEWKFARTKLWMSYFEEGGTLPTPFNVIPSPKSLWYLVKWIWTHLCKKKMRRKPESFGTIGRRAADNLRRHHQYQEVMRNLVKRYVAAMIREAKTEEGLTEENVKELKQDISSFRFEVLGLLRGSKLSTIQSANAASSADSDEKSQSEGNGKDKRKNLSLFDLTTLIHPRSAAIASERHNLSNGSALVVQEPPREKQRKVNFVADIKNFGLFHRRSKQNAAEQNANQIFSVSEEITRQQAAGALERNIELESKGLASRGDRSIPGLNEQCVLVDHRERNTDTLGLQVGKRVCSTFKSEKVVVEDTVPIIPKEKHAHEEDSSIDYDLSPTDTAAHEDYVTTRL
As to the kind of experiment: calcium entry via TRPC4 opening agents – cell-based, HEK293 TRPC4/mu-opioid, Fluo-4 calcium, dose response (AID 434937). It is filed as functional.

Assay [3] has as its target Heat shock protein HSP 90-alpha (Homo sapiens, UniProt P07900). Type of assay: functional, organism-based.
Assay [4] addresses T5, Zinc finger protein mex-5 (Caenorhabditis elegans, UniProt Q9XUB2).
T5 sequence (Q9XUB2 whole entry): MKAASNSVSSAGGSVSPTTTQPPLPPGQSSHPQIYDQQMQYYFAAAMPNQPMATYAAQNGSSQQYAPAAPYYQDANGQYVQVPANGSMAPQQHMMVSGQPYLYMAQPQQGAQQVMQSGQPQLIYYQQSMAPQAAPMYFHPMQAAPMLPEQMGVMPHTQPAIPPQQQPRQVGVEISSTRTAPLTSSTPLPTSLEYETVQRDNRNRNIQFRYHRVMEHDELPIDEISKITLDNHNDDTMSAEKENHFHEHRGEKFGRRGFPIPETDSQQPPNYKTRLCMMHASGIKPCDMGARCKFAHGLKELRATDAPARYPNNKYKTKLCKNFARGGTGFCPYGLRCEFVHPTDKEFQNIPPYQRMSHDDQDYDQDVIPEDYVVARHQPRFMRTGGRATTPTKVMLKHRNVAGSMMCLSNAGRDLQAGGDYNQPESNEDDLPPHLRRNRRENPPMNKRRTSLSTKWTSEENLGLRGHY
As to the kind of experiment: potency of MEX-5 RNA-binding blockers – biochemical, C. elegans, fluorescence polarization, dose response (AID 1960). (In general: Polarisation of emitted light reports the rotation of a fluorescent probe.)

Assay [5] deals with T6, RNA-binding protein pos-1 (Caenorhabditis elegans, UniProt G5EF15).
T6 sequence (G5EF15 whole entry): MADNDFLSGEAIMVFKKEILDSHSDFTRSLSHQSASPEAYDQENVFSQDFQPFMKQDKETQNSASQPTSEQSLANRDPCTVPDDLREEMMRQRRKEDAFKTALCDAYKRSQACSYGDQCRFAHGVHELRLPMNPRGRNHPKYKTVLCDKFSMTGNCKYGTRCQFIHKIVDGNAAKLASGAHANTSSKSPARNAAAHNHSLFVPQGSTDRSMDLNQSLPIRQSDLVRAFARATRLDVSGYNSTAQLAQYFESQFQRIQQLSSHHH
The experiment in a line: disruptors of C. elegans POS-1 RNA interaction – biochemical, fluorescence polarization, dose response (AID 1964).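 Also: purified POS-1 fused to maltose binding protein made in E. coli; potency of compounds blocking POS-1 binding to fluorescent RNA.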

Assay [6] addresses T7, High affinity choline transporter 1 (Homo sapiens, UniProt Q9GZV3).
T7 sequence (Q9GZV3 whole entry): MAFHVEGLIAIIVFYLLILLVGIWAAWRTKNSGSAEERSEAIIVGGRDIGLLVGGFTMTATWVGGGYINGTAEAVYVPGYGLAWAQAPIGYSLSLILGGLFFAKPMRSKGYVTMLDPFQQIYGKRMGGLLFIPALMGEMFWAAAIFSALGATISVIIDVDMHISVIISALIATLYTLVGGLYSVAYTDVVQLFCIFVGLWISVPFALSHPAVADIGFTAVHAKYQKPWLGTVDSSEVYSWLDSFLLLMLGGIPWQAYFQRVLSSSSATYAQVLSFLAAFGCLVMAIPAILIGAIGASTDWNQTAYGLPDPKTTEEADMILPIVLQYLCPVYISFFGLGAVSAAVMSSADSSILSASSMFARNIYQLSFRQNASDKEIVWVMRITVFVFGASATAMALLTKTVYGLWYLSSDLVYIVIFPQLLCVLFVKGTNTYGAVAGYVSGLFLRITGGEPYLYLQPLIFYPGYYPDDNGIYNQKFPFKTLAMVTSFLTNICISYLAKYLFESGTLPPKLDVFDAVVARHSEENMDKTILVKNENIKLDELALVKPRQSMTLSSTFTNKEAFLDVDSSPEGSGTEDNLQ
As to the kind of experiment: human choline transporter blockers, potency – cell-based, 5-point CRC, membrane potential dye, dose response (AID 504840). Type of assay: functional.

The source made the active and inactive calls. Bounds are passed on as bounds.

For the molecule `O/N=N/c1cnccn1`, the GI50 was 668 µM (inactive) with P388/ADR, 1070 µM (inactive) in the assay with SN12K1 and > 721 µM (inactive) in the assay with P388.

For `CCCCCN1CC(=O)C(c2nc(-c3ccc(Cl)cc3)cs2)=C1N`, the values for the AC50 at Cytochrome P450 2C19 and on Cytochrome P450 1A2 were 1.12 µM (inconclusive) and 1.58 µM (inconclusive), respectively. Besides, the IC50 in assay [1] was 5.38 µM (active).

For `Cc1cccc(N2CCN(C(=O)C3CCN(c4ncnc5c4nc4n5CCCCC4)CC3)CC2C)c1` (stereo unspecified), the IC50 at Phospholipase A2 is 11.1 µM (active); on Cysteine protease ATG4B, 15.3 µM (active).

Take `CCCC(=O)OCC1OC(n2ccc(N)nc2=O)C(OC(=O)CCC)C1OC(=O)CCC` (stereo unspecified): the GI50 in the assay with P388/ADR is 11.1 µM (inactive); in the assay with SN12K1, 1.86 µM (inactive); in the assay with P388, 0.2 µM (active).

In the case of `COc1ccc(C(CNC(=O)C2CCN(S(=O)(=O)c3ccc(F)cc3)CC2)N(C)C)cc1` (stereo unspecified), the EC50 in [2] is 2.11 µM (active).

With `CSc1nc2nccc(-c3ccc(Cl)cc3)n2n1`, the IC50 in [1] is 11.3 µM (active).

Consider `O=C[C@@H](CO)O[C@H](C=O)c1c[nH]c(=O)[nH]c1=O`, for which the figures for the GI50 with P388/ADR, with SN12K1 and with P388 were 38.1 µM (inactive), 76.6 µM (inactive) and > 80.7 µM (inactive), respectively.

Consider `Cc1ccc2nc(N/N=C/c3ccccc3F)nc(-c3ccccc3)c2c1`, for which the IC50 at Phospholipase A2 is 9.15 µM (active); on Cysteine protease ATG4B it was 17.9 µM (active).

With `O=C(/C=C/c1ccnc2ccccc12)c1cccs1`, in assay [3], the AC50 is 5.63 µM (active).

Turning to `CCOC(=O)C1=C(C)N=c2s/c(=C\c3cccc(OCC(=O)O)c3)c(=O)n2C1c1ccccc1OC` (stereo unspecified), in assay [1], the IC50 was 4.32 µM (active).

`O=C(c1ccc(Cl)cc1)N1CCN(c2ccc(F)cc2)CC1`: in assay [3], the AC50 was 5.2 µM (active).

Regarding `C=CCn1c(SCc2nc3scc(-c4ccccc4)c3c(=O)[nH]2)nnc1-c1ccccc1F`, the IC50 was 12.1 µM (active) on Phospholipase A2 and 15.9 µM (active) on Cysteine protease ATG4B.

Turning to `CC12CCC(C(=O)N3CC=CCC3)(OC1=O)C2(C)C` (stereo unspecified), the GI50 in the assay on P388/ADR, in the assay with SN12K1 and in the assay with P388 was > 100 µM (inactive) in each case.

In the case of `CC(=O)Nc1ccc(CN2CCCC(C(=O)c3ccc(C(F)(F)F)cc3)C2)cc1` (stereo unspecified), the EC50 in [2] was 2.66 µM (active).

For the molecule `COC(=O)c1ccc(/N=N/N(C)COc2ccc(Br)cc2)cc1`, the GI50 with P388/ADR was 32.8 µM (inactive); in the assay on SN12K1, > 66.8 µM (inactive); in the assay with P388, 27 µM (inactive).

On to `O=c1c(Cc2ccc(F)cc2)c(O)ccn1CCc1c[nH]cn1`, for which, in assay [2], the EC50 was 5.31 µM (active).

`O=C(N/N=C/c1cccn1-c1cccc(C(=O)O)c1)Nc1ccccc1`: the EC50 in assay [4] and in assay [5] was > 300 µM (not active) throughout. In assay [1], the IC50 is 8.69 µM (active).

`Oc1c(Cl)cc(Cl)cc1/C=N/c1ccc2c(c1)OCCO2`: the IC50 at Phospholipase A2 is 11.2 µM (active); in assay [6] it was 10 µM (active); at Cysteine protease ATG4B it was 7.3 µM (active).

For `CC(C)Cc1ccc(C(C)C(=O)N2CCN(/C=C/c3ccccc3)CC2)cc1` (stereo unspecified), the GI50 was 10.9 µM (inactive) in the assay on P388/ADR, 13.7 µM (inactive) in the assay with SN12K1 and 7.35 µM (inactive) in the assay on P388.

`COc1ccc(C(CNC(=O)c2cc(C)on2)N(C)C)cc1` (stereo unspecified): the EC50 in assay [2] was 0.376 µM (active).

(Values after ChEMBL document CHEMBL1201862, “PubChem BioAssay data set” (2004).)
